The test system of assay [1] is peritoneal- and splenic-derived macrophages. The assay is described as follows: Percentage and apoptotic status (Annexin V) of peritoneal and splenic macrophages after i.p. LPS. Format: in vivo, mouse. On the procedure:
To determine the apoptotic sensitivity of cIAP2^−/− macrophages within an LPS-induced pro-inflammatory environment, the peritoneal macrophage cell numbers before and during an endotoxin-elicited response were assessed by trypan blue exclusion, Diff Quik™ staining kit and flow cytometry (using the macrophage marker PE conjugated α-F4/80 antibody). […] However, total lymphocyte cell count numbers (B and T cells) were comparatively unaffected in both animal types (FIG. 5D). In addition, at 5 hours post LPS injection both the peritoneal and splenic macrophages from cIAP2^−/− mice stained ˜100% positive for Annexin V (Table 5). Therefore, peritoneal and splenic macrophages from cIAP2^−/− mice undergoing LPS-induced endotoxic shock were highly sensitive to apoptotic stimuli compared to control littermates, in vivo. Liver-derived macrophages are key mediators of LPS-induced endotoxic shock (7, 12). Therefore, to further investigate the survival status of macrophages within LPS treated cIAP2^−/− mice we examined cell count levels of liver-derived macrophages within liver sections. Macrophage cell count numbers within both cIAP2^−/− and control mice were similar at 2 hours post-IP LPS treatment (FIG. 6A), 235+/−35 and 271+/−29, respectively (n=5, average of 3 sections (average of 5 fields per section) per mouse, P<0.01). However, at the 6 hour time point (FIG. 6B), there was a precipitous drop of liver-derived macrophages of the cIAP2^−/− mice, 21+/−12 versus that of the littermates, 148+/−19 (n=5, average of 3 sections (average of 5 fields per section) per mouse, P<0.01). Therefore, like peritoneal and splenic macrophages, the liver-derived macrophages from cIAP2^−/− are highly sensitive to LPS in vivo.
Adult 4-6 week old mice (n=6) were injected i.p. with LPS (35 mg LPS/kg) at time 0 and 5 hours the mice were euthanized and the cells of the peritoneum were collected and stained to determine macrophage, T and B cell percentages. The macrophages were also stained with FITC labeled Annexin V (Immunotech, Marseille, France) to determine apoptotic status.
T and B cells were isolated from mouse lymphoid tissue (spleen) by first mincing and then pressing the tissue through a 10 μm metal mesh and were then counted by using trypan blue exclusion method. Macrophages were harvested from mice using an inter-peritoneal (i.p.) lavage ([…]: 5% FCS, 50 μM β-mercaptoethanol, […] L-glutamine, penicillin and streptomycin, at 4° C.) and washed once (centrifuged at 800 Xg for 15 min) and resuspended at ˜2×10^7 cells/ml for peritoneal macrophages. Subsequently, peritoneal macrophages were layered on 5 ml of room temperature Lympholyte-M (CedarLane, Canada) and centrifuged at 1500×g for 20 min at room temperature. For splenic macrophages 3 ml of the minced and pressed tissue (˜2×10^7 splenocytes/ml) was layered on 5 ml of room temperature Lympholyte-M (CedarLane, Canada) and centrifuged at 1500×g for 20 min at room temperature. Subsequently, either peritoneal or spleen-derived macrophages were collected from the interface layer, washed twice with complete DMEM and re-suspend in 1 ml complete DMEM. The resulting cells were then counted by using typan blue exclusion and Diff Quik™ Stain Kit (IMEB INC, San Marcos, Calif.). Cells (10^5-10^6) were incubated with the following conjugated monoclonal antibodies: α-CD3ε-flourescein isohiocyanate (FITC), CD4-phycoerythin (PE), CD8α-Cy-Chrome, CD69-PE; B229-FITC, B220-PE, CD11b-Cy-Chrome, (Pharmigen) F4/80-FITC and F4/80PE (Cedarlane Laoratories, Hornby, ON, Canada). Flow cytometric analyses were performed on a Coulter XL cytometer (Coulter, Canada). Concentrations of TNF-α and IL-1β, in primary tissue culture supernatants were determined by ELISA kit (R&D Systems).

The next assay concerns peritoneal macrophages. In words: TNF-α and IL-1β production of cultured peritoneal macrophages exposed to LPS (ELISA). In kind it is cell-based, mouse. The settings on record: cIAP2−/− peritoneal macrophages; LPS 0.1 to 1000 ng/ml; 10 and 24 h. As to the method:
Spleen- and peritoneal-derived macrophage cell count numbers are shown (A) for cIAP2^−/−, cIAP2^+/− and cIAP2^+/+ mice (n=10). Both cIAP2^−/− and littermate control-derived macrophages stained for the LPS binding surface receptor CD14 (B). The proliferation of B cells for cIAP2^−/− mice and littermate controls of cIAP2^+/+ after culturing with the indicated range of LPS doses (n=6) (C). Cultured macrophages from cIAP2^−/− or littermate control cIAP2^+/+ mice were exposed to LPS for 10 h and subsequently IL-1β (D) or TNF-α (E) levels were measured by ELISA (n=6). Additionally, macrophages were exposed to the indicated range of LPS doses for 24 h and IL-1β (F) or TNF-α (G) levels were determined (n=6). Results are mean±s.d. in triplicate per mouse, P<0.01
This dysfunction may be correlated to a reduced initial number of macrophages, to a block in the LPS-induced signaling pathway, or to an increased apoptotic susceptibility of the cIAP2^−/− macrophages. […]
T and B cells were isolated from mouse lymphoid tissue (spleen) by first mincing and then pressing the tissue through a 10 μm metal mesh and were then counted by using trypan blue exclusion method. […] The resulting cells were then counted by using typan blue exclusion and Diff Quik™ Stain Kit (IMEB INC, San Marcos, Calif.). […] Concentrations of TNF-α and IL-1β, in primary tissue culture supernatants were determined by ELISA kit (R&D Systems).

Where [2] appears, read: cIAP2+/+ mice, Peritoneal cavity, 0 hrs post-LPS.
Setting [3] is: cIAP2+/+ mice, Peritoneal cavity, 5 hrs post-LPS.
Where [4] appears, read: cIAP2+/+ mice, Spleen, 0 hrs post-LPS.
Setting [5] is: cIAP2+/+ mice, Spleen, 0 hrs post-LPS (first Spleen line).
Where [6] appears, read: cIAP2−/− mice, Peritoneal cavity, 0 hrs post-LPS.
[7] abbreviates: cIAP2−/− mice, Peritoneal cavity, 5 hrs post-LPS.
Setting [8] is: cIAP2−/− mice, Spleen, 0 hrs post-LPS.
[9] abbreviates: cIAP2−/− mice, Spleen, 0 hrs post-LPS (first Spleen line).

For the substance lipopolysaccharide [LPS], the “Percent apoptotic” value in assay [1] (setting [2]) was determined as 10 ± 2%; in assay [1] (setting [3]), 66 ± 8%; in assay [1] (setting [4]), 46 ± 8%; in assay [1] (setting [5]), 5 ± 3%; in assay [1] (setting [6]) it was 15 ± 3%; in assay [1] (setting [7]), 100 ± 3%. Further, the results for the Percent apoptotic in assay [1] (setting [8]) and in assay [1] (setting [9]) were 98 ± 4% and 2 ± 5%, respectively. Also, the Percent macrophage in assay [1] (setting [2]) was 54 ± 29%; in assay [1] (setting [3]) it was 31 ± 17%; in assay [1] (setting [4]), 28 ± 5%; in assay [1] (setting [5]), 33 ± 15%; in assay [1] (setting [6]), 41 ± 24%; in assay [1] (setting [7]), 8 ± 11%. Besides, the entries for the “Percent macrophage” value in assay [1] (setting [8]) and in assay [1] (setting [9]) were 24 ± 8% and 24 ± 11%, respectively. Moreover, the “Macrophages positive for Annexin V (apoptotic)” value in assay [1] (cIAP2−/− mice, peritoneal and splenic macrophages, 5 hours post LPS injection) is given as around 100%. Also, the “TNF-α and IL-1β levels relative to littermate controls” value with peritoneal macrophages is “generated comparable levels of TNF-α and IL-1β”.

The values above are taken from patent publication US20060123501A1, “Method for treating inflammatory disorders” (priority 2004, published 2006).
